# What was measured:
# [1] = test system: U937 cells; assay: Production of VEGF in supernatant of U937 culture; assay type: cell-based, human; conditions: FIG. 2
# Experimental: The inhibitory action of […] on the production of VEGF in the supernatant of U937 in culture was also evaluated.
# [2] = test system: male Wistar rats; assay: Carrageenan-induced acute inflammation of plantar pads; assay type: in vivo, rat
# Experimental: The role of […] was investigated by inducing inflammation of the plantar pads of rats with carrageenan, a model that mimics the state of acute inflammation in humans.
# Inflammation was induced in male Wistar rats by means of injection of 0.1 ml of carrageenan at 1% in sterile saline solution in the rats' right plantar pad. Peak inflammation occurs 3 hours after injection of carrageenan; at this point (t=0), the rats are treated with […] or diclofenac or indometacin (100 μM in 0.15 ml); the antinociceptive effect of the drugs was measured at 1, 3, 6, 12 and 24 hours after their administration.
# [3] = test system: naive murine CD4+ cells; assay: Activation of naive murine CD4+ T cells in vitro (CFSE, cytofluorimeter, ELISA); assay type: cell-based, mouse
# Text: The lymphocytes are cells of the immune defences that direct and amplify the response to attack. Their imbalance or malfunction is also at the root of autoimmune diseases. Successful increase in the ratio in favour of Treg cells can restore the equilibrium of the immune response and combat the resultant disorders. We analysed the activation of isolated naive murine CD4+ cells in the cytofluorimeter for the phenotype CD4+CD62L+CD44−CD25−. The cells were labelled with “5,6-carboxyfluorescein diacetate succinimyl ester” (CFSE) and we evaluated cellular proliferation in quantitative acquisitions with the cytofluorimeter based on the dilution of fluorescence, which depends on the proliferative activity of the cell.
# [4] = test system: naive CD4 cells; assay: Induction of T regulatory (Treg) cells from naive CD4 cells; assay type: cell-based, mouse; conditions: anti-CD3 stimulation 96 h, increasing concentrations; FIG. 22
# Experimental: We evaluated the capacity of […] to induce in vitro the differentiation of naive CD4 cells into immunosuppressive Treg cells characterized by the phenotype CD4+CD25+ and by expression of the Foxp3 transcription factor. […] The naive CD4 cells were stimulated with anti-CD3 antibodies for 96 h in the presence of increasing concentrations of […].
# [5] = test system: female NZB/NZW F1 mice; assay: Systemic lupus erythematosus model; assay type: in vivo, mouse
# Experimental: Systemic lupus erythematosus (SLE) is a chronic autoimmune disease that generally begins with arthritis or arthralgia. Haematuria or proteinuria may be the only renal symptom, however, lupus glomerulonephritis may lead to acute or terminal renal failure. An experimental model of SLE consists of female F1 mice derived from crossing of the NZB strain with NZW. To evaluate the possible effect of […] in SLE, we treated female NZB/NZW F1 mice with 0.25 mg of […] or carrier 5 days a week for six weeks, starting the treatment when the mice had developed anti-DNA antibodies.
# [6] = test system: lymphopenic mice with deletion of cd3ε; assay: Chronic intestinal inflammation by transfer of naive CD4 cells; assay type: in vivo, mouse
# Text: To study the effect of […] in idiopathic inflammatory diseases of the intestine, such as Crohn's disease and ulcerative colitis, we used lymphopenic mice with deletion of cd3ε. T lymphocytes are not present in these animals, and transfer of naive CD4 cells causes chronic intestinal inflammation. The simultaneous transfer of regulatory T cells (Treg) CD4^+CD25^+ […] the onset of the disease. […] Compared to mice reconstituted with naive CD4 and Treg cells (healthy controls), mice reconstituted with naive CD4 cells and treated with carriers show a severe oedematous-haemorrhagic picture of the colon with splenomegaly and lymphadenomegaly. […] The accumulation of Alcian-positive mucus filaments is visible inside the lumen of the cryptae (arrowheads). In the mice injected with CD4 cells and treated with carriers, muciparous goblet cells have completely disappeared along the cryptae. The cryptae are markedly hyperplasic with intensive cellular crowding, stratification, obliteration of the lumen (arrowheads), and a high frequency of mitotic cells is encountered (arrows). […] The cryptae are moderately hyperplasic and mucus filaments can be seen inside the lumen of the cryptae (arrowheads).
# [7] = test system: C57BL/6 WT mice; assay: Allergic contact dermatitis (TNCB sensitization, ear thickness); assay type: in vivo, mouse; conditions: 2 mg/kg injected locally in the auricle 4 hours before stimulus; FIG. 36
# Experimental: C57BL/6 WT mice are sensitized by applying, on day 0, 100 μl of 3% TNCB (2,4,6-trinitrochlorobenzene) in acetone, or only acetone as control, on the skin of the abdomen.
# As stress, 20 μl of 1% TNCB is applied on the skin of the back of both ears on day 5. This stress causes an allergic reaction that is manifested as swelling and reddening. The thickness of the ear (symptom of swelling) is measured 24 hours after application of the stimulus, using callipers (Mitutoyo). […] was injected locally in the auricle at a dose of 2 mg/kg 4 hours before the […] stimulus.
# [8] = test system: mice; assay: Asthma: ovalbumin sensitization and aerosol challenge, BALF; assay type: in vivo, mouse; conditions: 6 mg/kg intratracheal 30 minutes before OA aerosol; FIG. 38
# Experimental: Sensitization of mice with ovalbumin (OA) adsorbed on aluminium hydroxide, administered intraperitoneally on day 0 and day 7, can cause a similar asthmatic manifestation when the mouse is subsequently (days 19-21) challenged with OA aerosol. The mice were anaesthetized 30 minutes before the OA aerosol and the treated group received an intratracheal injection of […] 6 mg/kg.
# Twenty-four hours after the last administration of OA, a bronchoalveolar lavage was carried out with 3×1 ml of PBS free from calcium and magnesium ions.
# [9] = test system: C57/Bl/6 mice; assay: COPD: acute cigarette smoke exposure, BALF; assay type: in vivo, mouse; conditions: 6 mg/kg intratracheal; FIG. 39
# Experimental: C57/Bl/6 mice aged 6-8 weeks were exposed to room air or to the smoke of 5 cigarettes/day (Virginia brand with filter; tar 12 mg and nicotine 0.9 mg) for 3 consecutive days. For exposure to smoke, a special cage was used, which permits air exchange with the exterior or with the device that contains the cigarette only due to a mechanical fan, which also allows the smoke to be diluted with the external air (1:8) in order to simulate the situation of a smoker.
# Starting on the fourth day, the mice were anaesthetized 30 minutes before exposure to the smoke and were administered 6 mg/kg of […] or vehicle by intratracheal injection. The mice were sacrificed one hour after the end of the treatment and a bronchoalveolar lavage was carried out.
# [10] = 60 days from the end of treatment
smiles,measurement,setting,value
C=C(C=O)OC(C=O)n1cnc2c(N)ncnc21 (stereo not shown) [2-[1-(6-aminopurin-9-yl)-2-oxoethoxy]prop-2-enal],cellular production of VEGF,[1],reduced the cellular production of VEGF significantly
same,macrophages infiltrating the plantar pad (immunohistochemistry),[2]; biopsies from plantar pads,significantly reduces the presence of macrophages
same,effect on thermal hyperalgesia compared with diclofenac or indometacin,[2]; single dose 6 mg/kg,greater than the effect produced by diclofenac or indometacin
same,thermal hyperalgesia in the plantar pads,"[2]; single dose 6 mg/kg, local and intravenous, for 24 hours",significantly reduces thermal hyperalgesia
same,number of proliferating cells (CFSE dilution),"[3]; 300 μM, FIG. 21",more than ten-fold reduction
same,secretion of interleukin-2,[3]; ELISA in culture supernatant at 24 h,significantly reduces
same,"expression of CD44 and shedding of L-selectin CD62L (cells CD44 positive, CD62L negative)",[3]; FIG. 21,significantly reduces
same,side scatter of the cells (parameter of activation of CD4 cells),[3]; FIG. 21,reduced
same,differentiation of naive CD4 cells into Treg cells (CD4+CD25+ Foxp3),[4],induced the differentiation of Treg cells in a manner that was dependent on the dose used
same,proteinuria,"[5]; 0.25 mg 5 days a week for six weeks, two months following the treatment",did not appear
same,deposition of immune complexes (histopathological score),[5]; [10],significant decrease
same,glomerular proliferation (histopathological score),[5]; [10],significant decrease
same,lymphocyte infiltration (histopathological score),[5]; [10],significant decrease
same,colon sections stained with Alcian-PAS,[6]; mice injected with CD4 cells,muciparous goblet cells positive to Alcian-PAS are identifiable along the cryptae
same,"macroscopic appearance of colon, spleen and lymph nodes","[6]; treatment two weeks after injection of naive CD4 cells, FIG. 31",dramatic improvement of the inflammation of the colon
same,"histological scores (0-4, Asseman)","[6]; vs carriers, no significant difference to healthy control",significant improvement of the lesions
same,allergic reaction (thickness of the ear),[7],able to inhibit the allergic reaction
same,immune cells and mediators of inflammation in BALF,[8],Significantly lower levels of immune cells and mediators of inflammation
same,immune cells and messengers of inflammation in BALF,[9],slight finding of immune cells and of messengers of inflammation

# From patent US20160129005A1, “ADENINE DERIVATIVES HAVING IMMUNOMODULATING ANTI-INFLAMMATORY AND ANALGESIC ACTIVITY” (MEDESTEA RESEARCH & PRODUCTION S.p.A., priority 2011, published 2016)
